Experiments:
[1] = Plasma stability determination in mouse plasma; assay type: in vitro ADME
Procedure: Plasma stability determination. The degradation of TR001 in the presence of mouse plasma (from Innovative Research) was used to predict the plasma stability of the compound to esterase catalyzed hydrolysis. A positive control for plasma cholinesterase, propantheline bromide, was included in all assays. Briefly, murine plasma was incubated with 1 μm TR001. Aliquots were removed at t=0, 5, 15, 30, and 60 and 120 min and quenched with acetonitrile containing structurally related compound (TR073) as the internal standard. The amount of TR001 remaining in the supernatant was assessed by LC-MS/MS in multiple reaction monitoring mode (MRM) using a 4000 QTRAP (SCIEX) with electrospray ionization source. The instrument was operated in negative mode with source parameters: source voltage […], GS1 50, GS2 50, CUR 30, TEM 650 and CAD gas MED. Optimal MRM transitions were obtained by direct infusion of the pure compound into the source. The mass spectrometer was interfaced to a Shimadzu (Columbia, MD) SIL-20AC XR auto-sampler maintained at 35° C. followed by 2 LC-20AD XR LC pumps. The internal standard and compound of interest were resolved using a Gemini-NX C18 50×2.1 mm column (Phenomenex) with 0.1% formic acid (solvent A) and 0.1% formic acid in acetonitrile (solvent B). The injection volume was 10 μL at a flow rate of 0.75 mL/min. The gradient elution was 10% B to 95% B over 5 min and held at 95% for 1 min before returning to start conditions. The column was maintained at 40° C. using a Shimadzu CTO-20AC column oven. Data were acquired using Analyst 1.6.2 and analyzed using Multiquant 3.0.1 software. The first-order rate constant for substrate depletion was determined from a linear least squares fit of the natural log of the percent parent compound remaining versus time. The rate constant was used to calculate the plasma half-life as an indicator of stability.

[2] = tested on: inner mitochondrial membrane potential; test: Rhodamine 123 (Rh123) uptake, mitochondrial membrane potential of isolated mouse liver mitochondria; assay type: biochemical
Text: We next evaluated the mitochondrial toxicity of the new triazole analogs by testing their ability to interfere with accumulation of the membrane-permeant cationic fluorescent dye rhodamine 123 (Rh123). The mitochondrial uptake of positively charged Rh123 is driven by the inside negative IMM potential, which is built by the respiratory chain or maintained by ATP hydrolysis if certain conditions are met. […] It should be noted, however, that toxicity for these compounds only occurs at ˜10-1000-fold higher concentrations compared to mtPTP inhibition, providing a good therapeutic window.
Assessment of mitochondrial membrane potential. Mitochondrial membrane potential—to evaluate toxicity—of isolated mouse liver mitochondria was assessed based on fluorescence quenching of the cationic fluorescent dye Rh123 upon its accumulation into mitochondrial matrix due to inside negative membrane potential. Compounds that interfere with the build-up or maintenance of IMM potential would shift Rh123 fluorescence to higher values compared to DMSO treated samples. Uncoupler FCCP was used to account for nonspecific fluorescence. First, 0.1 mL of SAB was dispensed to a 96-well black assay plate. A set of wells also contained 0.8 μm FCCP (to prevent Rh123 uptake). The test wells contained a range of concentrations (in 1:2 serial dilutions) of the compounds of interest or 2% DMSO. Then, 0.1 mL of 0.5 mg/mL mitochondria in SAB devoid of respiratory substrates but supplemented with 0.8 μm Rh123 were added to all wells of the assay plate. Fluorescence intensity (ex/em 485/535 nm) was read on a Tecan Infinite F200 plate reader for 7 min and value at 5 min was considered for analysis. EC50s±SE were determined with OriginPro software by applying Hill1 function fitting algorithm on average concentration response data of n=3 independent preparations.

HeLa cells = test: HeLa cell viability assay; assay type: cell-based; settings: up to 50 μm, 24 h treatment
Text: A thorough evaluation of toxicity is critical for advancing TR001 to in vivo studies. […] To more thoroughly examine mitochondrial toxicity, we analyzed oxygen consumption rates (OCRs) using the Seahorse XF24 extracellular flux analyzer. This allowed us to assess the effects of TR001 on mitochondrial respiration and ATP synthesis. […] Consequently respiratory control ratios (i.e., the ratios between ADP-stimulated and basal respiration) were not affected across the concentrations tested (FIG. 5B). Complex III inhibitor antimycin A shuts down the electron transport chain at the bc1 complex and was used to account for oxygen leak.
Cell viability assay. HeLa cells were seeded at a density of 10^4 per well in 96-well plates and let to adhere for 6 h before treatment with varying concentrations of TR001 or vehicle (1% DMSO. After treatment for 24 h the relative viable cell number was determined with a CellTiter 96 Aqueous One Solution Cell Proliferation Assay Kit (Promega).

SMILES: Cc1ccc(Cl)cc1NC(=O)c1cn(-c2ccc(F)c(O)c2)nn1 [TR001, N-(5-chloro-2-methylphenyl)-1-(4-fluoro-3-hydroxyphenyl)-1H-1,2,3-triazole-4-carboxamide]
- fold increase in plasma stability compared to 63 ([1]; TR001 vs 63): 47 fold
- half-life at 1 µM ([1]; mouse, read-out: Mouse Plasma t1/2): 16.5 h
- interference with buildup of IMM potential (in words) ([2]; Rh123 uptake assay): did not interfere with IMM potential
- EC50 ([2]; interference with Rh123 uptake to mitochondria, average ± SEM, n = 3, read-out: Rh123 uptake EC50): > 40 µM
- HeLa cell viability (HeLa cells): did not exhibit any adverse effects

Reference: patent US12398110B2, “Second generation inhibitors of mitochondrial permeability transition pore with improved plasma stability” (Oregon Health & Science University, priority 2019, dated 2025)
